Source: US8093273B2, “Flavanoids and isoflavanoids for the prevention and treatment of cardiovascular diseases” (Resverlogix Corp., priority 2004, dated 2012)
Converted amounts (≈) assume the structure as drawn. Where two headings read alike, the source gives them in different places.

Assays:
human ApoA-I promoter [1] = experiment: ApoA-I promoter induction in HepG2 liver cells (pAI.474-Luc luciferase reporter); assay type: cell-based; conditions: average values at 15 μM, 48 hours incubation
Procedure: This study determined whether compounds of the invention have an effect on ApoA-I promoter activity expression in HepG2 cells, a liver cell line. Cells were grown under conditions recommended by the ATCC and summarized by Wong.
The promoter region of the gene encoding human ApoA-I was isolated and ligated upstream the structure gene of firefly luciferase to construct a reporter plasmid (pAI.474-Luc). The reporter plasmid, along with pRSV-β-galactosidase (as a control for transfection efficiency), were co-transfected into HepG2 cells. The cells were then incubated in an MEM selection media containing 20% fetal calf serum supplemented with G418 (final concentration: 0.5 mg/mL, Gibco) to give established strains that stably express from the reporter gene. The strains were seeded to a 6-well culture plates and incubated for 48 hours at 37° C. under 5% carbon dioxide. Cells were starved for 24 hrs in MEM selection media containing 0.5% FBS. Then, a solution of the compounds of the invention in DMSO (or other appropriate solvent) was added to the wells at a final concentration of 0 to 100 μM in MEM selection media containing 0.5% FBS.
After further incubation for 48 hours, the cells were harvested and lysed using Reporter Lysis Buffer (PROMEGA E3971), and 50 μL of luciferase assay reagent (PROMEGA E4550 Luciferase Reporter 1000 assay system) were added to measure luciferase activity with a luminometer (Fluoroskan Ascent FL from Thermo electron Corporation). Luciferase activity was normalized to lysate protein concentrations, measured using Bradford Reagent (Biorad Protein Assay reagent Cat #500-0006).

[2] = Solubility analysis in PBS (HPLC-UV); assay type: physicochemical; conditions: aqueous buffer, thermodynamic from solid; 1 mg in 1 mL PBS, sonicated 1 hour, 25° C. for 3 hrs
Procedure: Samples were then centrifuged at 14,000 rpm for 6 minutes at room temperature. The supernatant was diluted with acetonitrile and was removed for analysis. Analysis was performed using HPLC-UV with 7-point standard curve to determine the concentration. The average concentration calculated is regarded as the solubility (μM).

human ApoA-I promoter [3] = experiment: Kinetics of ApoA-I promoter induction in Caco-2 cells transfected with pAI.474-Luc; assay type: cell-based; conditions: time points from 4 to 72 hours
Procedure: Accordingly, the kinetics of induction of the ApoA-I promoter were assessed.
Caco-2 cells transfected with pAI.474-Luc were treated with compounds of the invention at selected time points varying from 4 to 72 hours. This construct pAI.474-Luc contained the human ApoA-I promoter fused to the reporter gene, firefly luciferase (Luc).
Further, maximal stimulation appeared following 48 hour exposure. […] Maximal stimulation appeared following 48 hour exposure to the compound.

Caco-2 permeability = assay type: in vitro ADME, human; conditions: human
From the text: (§1) The Caco-2 cell drug transport model is widely used for screening compounds in drug discovery to assess intestinal transport and predict absorption rates.

hApoA-I transgenic mice = experiment: hApoA-I transgenic mice, oral gavage for 14 days; assay type: in vivo
How it was run: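 Male hApoA-I transgenic mice (7–8 weeks) dosed orally by gavage daily for 14 days, BID or SID, as suspensions at 5 mL/kg in 0.5% methylcellulose/1% Tween 80 or F-101; fenofibrate 100 mg/kg as positive control. After a 4 h fast on day 15, plasma ApoA-I, HDL-C, total cholesterol and triglycerides measured relative to pre-bleed-matched groups.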

human ApoA-I promoter [4] = experiment: ApoA-I promoter induction in Caco-2 intestinal cells (pAI.474-Luc luciferase reporter); assay type: cell-based; conditions: Caco-2 cells, 15 μM, 48 hours incubation, luciferase activity vs control samples
How it was run: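 Caco-2 cells stably carrying the human ApoA-I promoter–firefly luciferase construct (pAI.474-Luc) were starved 24 h in 0.5% FBS medium, then exposed to compound at 0 to 100 μM final for 48 h at 37° C. Luciferase activity in lysates was normalized to Bradford protein and compared with solvent-only and untreated controls.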

Caco-2 cells = experiment: Caco-2 permeability; assay type: in vitro ADME, human; conditions: in vitro Caco-2 intestinal transport model
From the text: as §1

ApoA-I protein = ApoA-I protein expression in HepG2 cells (ELISA of conditioned media); assay type: cell-based, human; conditions: 7.5 μM
Procedure: This study confirmed that compounds of the invention have an effect on ApoA-I protein secretion in HepG2 (liver) cells by measuring whether stimulation of transcriptional activity of the endogenous ApoA-I promoter in the HepG2 cells increased the abundance and secretion of ApoA-I protein.
The HepG2 cell line was obtained from the ATCC and cultured in MEM media supplemented with 10% FBS (Gibco), with 1 mM sodium pyruvate, 0.1 mM MEM non-essential amino acid, 2 mM L-glutamine, 100 U/ml penicillin, 100 μg/ml streptomycin and 5 μg/ml plasmocin. Cells were maintained at 37° C. in an atmosphere of 5% CO2 Cells were grown to 85% confluency prior to initiating the experiment.
Cells were plated and allowed to adhere overnight in a phenol red-free DMEM containing 10% of Charcoal/Dextran treated FBS (Hyclone), with 1 mM sodium pyruvate, 0.1 mM MEM non-essential amino acid, 2 mM L-glutamine, 100 U/ml penicillin, 100 μg/ml streptomycin and 5 μg/ml plasmocin. The medium was removed, and cells were washed in 1×PBS. Cells were then starved in phenol red-free DMEM (serum free) for a period of 24 hours. Cells were then mock treated (untreated, DMSO), or treated with compound of the invention diluted in phenol red-free DMEM (serum free) media at a concentration of 7.5 μM. Cells and media were harvested at 0, 6 and 24 hours following compound treatment.
Medium was removed from cells at the desired times and applied to a solid phase capture sandwich in an ELISA assay according to manufacturer's instructions (Total human Apolipoprotein ELISA Assay-Alercheck).

human ApoA-I promoter [5] = conditions: Caco-2 cells, reported by Wong (US 20040033480); cited from earlier work
human ApoA-I promoter [6] = conditions: Caco-2 cells, reported by Wong; cited from earlier work
[7] = subjects with low HDL-C; Rubins et al. 1999; cited from earlier work
[8] = following oral administration; Gugler et al. 1975; cited from earlier work

## O=c1cc(-c2ccc(O)cc2)oc2ccccc12 [4′-hydroxyflavone, reference compound]
Human ApoA-I promoter [1]
  ApoA-I Promoter Induction: increased
[2]
  solubility at 3 h: 5.04 µM (≈ 1.2 µg/mL)
Human ApoA-I promoter [3]
  exposure time of maximal stimulation of ApoA-I promoter activity: 48 h
Caco-2 permeability; Caco-2
  Papp: 4.31 ×10⁻⁶ cm/s
hApoA-I transgenic mice; Experiment A, 10 mg/kg BID oral gavage, 14 days, 0.5% methylcellulose/1% Tween 80
  plasma ApoA-I, net % change over vehicle: 32.44%
hApoA-I transgenic mice; Experiment A, 10 mg/kg BID oral gavage, two weeks, NMR lipoprotein profile
  HDL cholesterol, net % change: 12.6%
hApoA-I transgenic mice; Experiment A, 10 mg/kg BID, day 15, male mice
  liver weight gain normalized to body weight, compared to vehicle: minor changes
hApoA-I transgenic mice; Experiment B, 3 and 30 mpk BID oral gavage, 14 days
  change in ApoA-I over vehicle: lack of statistically significant change
hApoA-I transgenic mice; Experiment B, 10 mpk BID oral gavage, two weeks
  plasma ApoA-I, net % change over vehicle: 31.24%

## O=c1cc(-c2ccc(O)cc2)oc2cc(O)cc(O)c12 [5,7-Dihydroxy-2-(4-hydroxy-phenyl)-chromen-4-one, reference compound]
Human ApoA-I promoter [3]
  exposure time of maximal stimulation of ApoA-I promoter activity: 48 h
Human ApoA-I promoter [4]
  ApoA-I Promoter Induction: increased

## O=c1cc(-c2ccc(O)cc2)oc2cc(O)cc(O)c12 [5,7-dihydroxy-2-(4-hydroxyphenyl)-4H-chomen-4-one] [reference compound]
Human ApoA-I promoter [1]
  ApoA-I Promoter Induction: increased
Caco-2 cells
  % Transported Paap: 1.5 ×10⁻⁶ cm/s

## Oc1ccc(-c2cc3ncccc3cn2)cc1 [Example 57, 4-(1,6-naphthyridin-7-yl)phenol]
other
  melting point: 219 to 221 °C
Human ApoA-I promoter [4]
  ApoA-I Promoter Induction: increased
ApoA-I protein; 6 and 24 hours, vs untreated cells and cells treated with solvent
  ApoA-I content in the medium (ELISA): increased significantly
ApoA-I protein; time course 0, 6, 24 hours
  time after addition of compound at which ApoA-I levels in the medium start to increase: ~6 h
Caco-2 permeability; Caco-2
  Papp: 5.34 ×10⁻⁶ cm/s
hApoA-I transgenic mice; Mus musculus, po, 336 h, Table 6 fourth group, 10 mg/kg BID 14 days, relative to pretreatment, Control 3 1.11, read-out: ApoA-I (% change)
  change in vivo at 10 mg/kg: 9.49%

## Oc1ccc(/C=C/c2cc(O)cc(O)c2)cc1 [Resveratrol, resveratrol, reference compound]
Human ApoA-I promoter [5]
  increase of ApoA-I promoter activity over untreated control: 2.5 times
Human ApoA-I promoter [6]
  exposure time of maximal stimulation of ApoA-I promoter activity: 16 h
Human ApoA-I promoter [4]
  ApoA-I Promoter Induction: increased
Caco-2 cells
  % Transported Paap: 3.34 ×10⁻⁶ cm/s
Caco-2 permeability; in vitro Caco-2 intestinal transport model, read-out: % Transported Paap
  Papp: 3.34 ×10⁻⁶ cm/s

## Cc1ccc(C)c(OCCCC(C)(C)C(=O)O)c1 [gemfibrozil]
[7]
  increase in the HDL-C level: 6%
  reduction of the CHD risk: 22%

## O=c1c(O)c(-c2ccc(O)c(O)c2)oc2cc(O)cc(O)c12 [quercetin]
[8]
  intestinal absorption: less than 1%
